Data as given in patent US20080119530A1, “Method for treatment and prevention of ultraviolet light induced skin pathologies” (priority 2006, published 2008).

Tests used:
[1] = test system: Tg.AC mice; experiment: UV-induced skin tumorigenesis in v-rasHa transgenic Tg.AC mice; type: in vivo, mouse
Source text: Animals. Homozygous v-rasHa transgenic mice on an FVB/N background were used in in vivo experiments. To obtain keratinocytes with genetic ablation of Erbb2, loxP sites were inserted flanking exon 2 of Erbb2 such that splicing from exon1 to downstream introns upon Cre recombinase expression creates a frameshift mutation. Mice were maintained in our animal facility and provided with Purina lab chow (Nestle Purina PetCare, St. Louis, Mo.) and water ad libitum. The dorsal skin was clipped one day before treatment using electric clippers (Wahl, Sterling, II) and shaved on the day of treatment with a Remington Microscreen shaver (Madison, N.C.). […] The Ultraviolet-B TL 40W/12 RS bulbs (Philips, Somerset, N.J.) used emitted approximately 30% UVA, 70% UVB and <1% UVC, with a total output of 470 μW/cm^2, as measured with radiometric photodetector probes (Newport, Irvine, Calif.). For tumor experiments, homozygous Tg.AC mice were treated and exposed twice with an interval of 7 d. Tumor number was counted and tumor volume measured weekly using calipers. Skin-fold thickness was measured using calipers (Mitutoyo, Aurora, Ill.) to lightly pinch the dorsal skin. All animal procedures were performed in accordance with American Association of Laboratory Animal Care guidelines and approved by Creighton University's Institutional Animal Care and Use Committee.
Statistical methods. The tumor experiment was analyzed using two-way ANOVA. Statistical significance in other experiments was assessed using two-way ANOVA or Student's t-test with Bonferroni post-test. All experiments, excluding the tumor experiment, were replicated several times and consistent results obtained.
The skin tumorigenesis experiment was performed in v-ras^Ha transgenic Tg.AC mice because of their enhanced sensitivity to UV-induced skin tumorigenesis (13; 52). […] While the vehicle-treated mice continued to accrue tumors throughout the duration of the experiment, the AG825-treated group reached a plateau in tumor number by 7 weeks after the first UV exposure. By the end of the experiment, mean tumor volume was also 70% less in the AG825-treated group when compared to the vehicle control. Representative tumors from each treatment were examined histologically and all were benign squamous papillomas with similar differentiation status.
Upon activation, Erbb2 heterodimerizes with either EGFR or Erbb3 to transduce signals. Support for the hypothesis that Erbb2 increases skin carcinogenesis comes from our investigations of the functions of its dimerization partner EGFR. A tumor study was conducted to assess the role of EGFR in the clonal expansion of transformed cells to form benign tumors in the skin of v-ras^Ha transgenic Tg.AC mice. Inhibition of EGFR with the tyrphostin inhibitor AG1478 decreased the number of tumors that developed by about 50% in UV-exposed v-rasHa transgenic mice. Mean tumor volume was 80% less upon inhibition of EGFR-mediated signaling when compared to, UV-exposed and vehicle-treated controls.

[2] = test system: Akt; experiment: Akt activity by phosphorylation on immunoblot in keratinocytes; type: cell-based, mouse; settings: sham-irradiated keratinocytes and 30 minutes post-UV
Protocol: Immunoblotting. Flash frozen skin was ground with a mortar and pestle on dry ice, homogenized in lysis buffer containing 10 mM Tris (pH 7.4), 150 mM NaCl, 10% glycerol, 1% Triton X-100, 1 mM EDTA, Complete Protease Inhibitor Cocktail (Roche, Germany), 1 mM Na3V O4, 1.5 μM EGTA, and 10 μM NaF. Protein was quantified using the Coomassie Brilliant Blue G-250 protein assay (Bio-Rad, Hercules, Calif.). The evenness of loading and transfer was determined by staining with Ponceau S and by actin immunoblotting. […]
Cell culture. […] Transfection efficiency was quantified by determining the proportion of the cells that incorporated the fluorescent Cy3-conjugated siRNA or GFP one day post-transfection. […]

## COc1cc(/C=C(\C#N)C(N)=O)cc(CSc2nc3ccccc3s2)c1O [AG825]
[1]; 4 mg AG825 topically 2 h prior to each of two 10 kJ/m^2 UV exposures 7 d apart
  tumors per mouse by the end of the experiment: 15
[1]; 12 weeks later
  tumor multiplicity decreased: more than half
  tumor volume decreased: more than half
[1]; after the first UV exposure
  time by which tumor number reached a plateau: ≤ 7 weeks
[1]; by the end of the experiment
  mean tumor volume less than vehicle control: 70%
[1]; inhibition of Erbb2 prior to UV irradiation, vs vehicle
  development of tumors blocked: more than half
[1]; topical treatment 2 h prior to UV irradiation
  UV-induced carcinogenesis (FIG. 6): suppress
[2]
  Akt activity, measured by its phosphorylation on immunoblot: reduced
